From a melting point compilation (Tetko et al.; mined from patent text by program, amines drawn as free bases though some values may be those of a salt)

Structure (SMILES)	melting point
Cc1cc(CO)n(CCCOc2cc3c(cc2C)OC2(CC(C)(C)c4cc(O)c(C)cc4O2)CC3(C)C)n1 (centres undefined)	208 to 210 °C
NCC(=O)N(C(=O)C(O)c1ccccc1)c1ccccc1 (centres undefined)	148 to 151 °C
O=C(Nc1ccc(F)cc1)c1ccc([N+](=O)[O-])cc1	143 to 146 °C
Cc1cc(NC(=O)C(=O)N(C)Cc2ccccc2)cc(C)c1S(=O)(=O)C[N+](=O)[O-]	99 to 101 °C
COC(=O)C1=C(C#N)NC(C)=C(P2(=O)OCCCO2)C1c1ccccc1[N+](=O)[O-] (centres undefined)	228 to 229 °C
O=C1NCC(c2ccccc2)N1CCCS (centres undefined)	97 to 99 °C
Cn1nnnc1S(=O)CCCCS(=O)(=O)c1nnnn1C (centres undefined)	147 to 149 °C
c1ccc(N2CCN(Cc3ccc4ccccc4c3)CC2)nc1	124 to 126 °C
O=c1nc(-c2ccccc2)c2cc([N+](=O)[O-])sc2n1CC1CC1	216 to 218 °C
NS(=O)(=O)c1ccc(-c2oc3cc(F)ccc3c(=O)c2-c2ccc(Cl)c(Cl)c2)cc1	190 to 191 °C
O=C(c1ccccc1F)c1cc(Cl)ccc1C#CCN1C(=O)c2ccccc2C1=O	158 to 161 °C
CC(CCc1ccccc1)NCC(O)c1cc(C(N)=O)c2[nH]ccc2c1 (centres undefined)	94 to 100 °C
CC(=O)c1ccc2c(c1)CCN(Cc1ccccc1)CC2	89 to 91 °C
CCCCOCCOc1ccc(-c2cnc(N3CCC(COC(C)=O)C3)c(/C=C(\C)C(=O)O)c2)cc1 (centres undefined)	82.2 to 84.2 °C
CS(=O)(=O)c1ccc(-c2[nH]nc(C(=O)CCCO[N+](=O)[O-])c2-c2ccc(C#N)cc2)cc1	148 to 149 °C
CCCOCCOc1ccc(-c2ccc3c(c2)C=C(C(=O)O)CCS3(=O)=O)cc1	176 to 179 °C
CCOC(=O)CS(=O)(=O)Nc1ccccc1CC(=O)OC	86 to 88 °C
c1cc(-c2ccc(OCCCN3CCCC3)cc2)ccc1OCCCN1CCCCC1	105 to 108 °C
CC(C)(C)OC(=O)NCCCCCCO	36 to 37 °C
C[C@@](O)(C(=O)Nc1ccc(S(=O)(=O)c2ccccc2NCCO)cc1Cl)C(F)(F)F	68 to 70 °C
O=C(O)CCCCCc1nc2ccccc2o1	82 °C
C=CCC(CC=C)(CC=C)c1ccc(-c2nc3cc(C#N)c(C#N)cc3[nH]2)cc1	264 to 266 °C
COc1ccc(N2CCN(C(N)=O)C2=O)cc1OC	240 °C
CC(C)(C)c1cc(C(=O)c2ccc(O)cc2O)cc(C(C)(C)C)c1O	192 to 193 °C
COc1cc(O)c2c(c1OC)C(=O)C(O)=C(C)C2=O	218 to 220 °C

Structure (SMILES)	melting point
Cn1ncc2c1CS(=O)(=O)c1cn[nH]c1-2	> 270 °C
COc1cccc(N2CCN(Cc3ccccc3C(c3ccc(O)cc3)c3ccc(O)cc3)CC2)c1	128 to 130 °C
CCC1(CC)C(=O)NC(C)(C)C(C)(C)N1OC(C)(C)C#N	140 to 145 °C
NS(=O)(=O)c1ncccc1NC=O	183 °C
CCOC(=O)c1cccc(Cn2cnc3cnccc32)c1	119 to 120 °C
COC(=O)c1ccc(-c2c[nH]c(-c3ccc4c(c3)C(C)(C)CCC4(C)C)c2)cc1	174 to 175 °C
CCN(CC)S(=O)(=O)c1ccc2c(c1)S(=O)(=O)NC(C1CCCCC1)N2 (centres undefined)	207 to 209 °C
CON=Cc1ccc2c(c1)c1c(n2CCc2cccc(F)n2)CC[C@@H](NC(=O)C2CC2)C1	223 to 225 °C
Cc1oc(-c2ccccc2)nc1Cc1cc2cc(C=O)ccc2o1	116 to 118 °C
CN1CCN(Nc2cc(Cl)ccc2[N+](=O)[O-])CC1	108 °C
CC(C)(C)C(=O)Oc1ccc(OC(=O)C(C)(C)C)c(C(=O)OCc2ccccc2)c1	90.5 to 91.8 °C
COC(=O)c1cc(C(=O)OC)n(-c2ccc(Cl)cc2C(=O)c2ccccc2)n1	118 to 120 °C
Nc1ccc(-c2ccc(-c3ccc(N)cc3)o2)cc1	213 to 216 °C
COc1ccc(C(CN)C(CN)c2ccc(Cl)cc2)cc1 (centres undefined)	124 to 127 °C
COc1ccc(-c2c(C(=O)O)oc3cc(OCc4ccc(OCc5ccc6ccccc6n5)cc4)cc(O)c3c2=O)cc1	195 to 196 °C
COc1ccc(CNC(=O)c2c(C)c([N+](=O)[O-])cc3nc(OC)c(OC)nc23)cc1	187 to 189 °C
C[Si](C)(C)NC(=O)C(Cl)(Cl)Cl	75 to 85 °C
Nc1cc(-c2cccnc2)c[nH]c1=O	280 to 290 °C
CN1Cc2c(-c3noc(CCl)n3)ncn2-c2ccc(F)c(Cl)c2C1=O	215 to 218 °C
CCOC(=O)c1c(S(=O)(=O)O)nc(-c2ccccc2)c([N+](=O)[O-])c1C(=O)OCC	187 to 190 °C
O=C(O)c1cc(C(F)(F)F)cc([N+](=O)[O-])c1O	166 to 168 °C
Cc1oc2c(NC(=O)c3c(Cl)cccc3Cl)cccc2c1CN	200 to 203 °C
Cc1c(C(C)F)nc[nH]c1=O (centres undefined)	108 to 109 °C
CCOCCCOc1ccc(-c2ccc3c(c2)C=C(C(=O)OC)CCN3)cc1	99 to 102 °C
O=C(Nc1ccccc1)C1=C(c2ccccc2)C(c2ccccc2)OC1=O (centres undefined)	148 to 150 °C

Structure (SMILES)	melting point
CC(=O)NC1CCN(c2c(F)cc([N+](=O)[O-])c(F)c2CO)C1 (centres undefined)	142 to 144 °C
O=Cc1cccc2ncc(C3CCCCC3)cc12	94 to 95 °C
CC(=O)Nc1c(OCc2ccccc2)cc(Br)cc1N(C)C	177 °C
Cc1cc2c(cc1O)C(C)(C)CC(C)(c1cc(O)c(C)cc1O)O2 (centres undefined)	190 °C
Cc1ccc(S(=O)(=O)NCCCCOc2ccc(-n3cccc3)cc2)cc1	124 to 126 °C
COC(COc1ccc(Oc2ccccc2)cc1)OC	76.7 °C
C=C1c2ccccc2C=Cn2c(OC)nnc21	160 to 161 °C
O=C1CCCC(c2ccc(Cl)cc2)N1c1ccc(O)cc1 (centres undefined)	209 to 210 °C
CC(C)(C)C(Cl)=C(C#N)C#N	52 to 53 °C
CC(NO)C(=O)OC(C)(C)C (centres undefined)	69 to 70 °C
Cn1cnc(S(=O)(=O)O)c1Cl	309 to 310 °C
CCS(=O)CC(=C1NCCCS1)[N+](=O)[O-] (centres undefined)	102 to 104 °C
C=C(C)COc1ccc(C(=O)C=Cc2c[nH]c3ccccc23)c(O)c1	29 to 30 °C
COc1ccc(CNc2ncnc3c(N4CCOCC4)nc(N4CCC(N(C)C)CC4)nc23)cc1	124 to 126 °C
NC1=NC(c2ccc(OC(F)F)cc2)(c2cccc(-c3cccnc3F)c2)C2=NCC3(COC3)CN12 (centres undefined)	96 to 107 °C
O=C1NC(=O)C(CCCc2ccc(O)cc2)O1 (centres undefined)	132 to 133 °C
CC(=O)N(Cc1ccc2c(c1)OCO2)c1ccc(Oc2ccccc2)cc1	75 to 76 °C
CCN(CC)Cc1ccc(C(N)=O)o1	164 to 165 °C
CC1COc2c(OC3CCN(C)CC3)c(F)cc3c(=O)c(C(=O)O)cn1c23 (centres undefined)	234 to 238 °C
FC(F)(F)c1cccc(C2=CCN(CCc3ccc4[nH]ccc4c3)CC2)c1	122 to 123 °C
COC(=O)Cc1ccccc1NC(=S)NCN	149 to 150 °C
CC1(C)CC(=O)Nc2cc3nc(-c4ccc(CO)cc4)[nH]c3cc21	214 to 232 °C
COc1cc(Cc2nc(NC(C)(C)C)c3c(C)c(C#N)sc3n2)cc(OC)c1OC	146 to 148 °C
O=C1COCCOCC(=O)NCCSCCSCCN1	145 °C
